Assay [1] concerns the target Biotin-labeled RNA (target RNA). Put plainly: BLI affinity measurement (ForteBio Octet RED384). It counts as binding. The following applies: Table G.
For assay [2], the system named is RAN translation of (G4C2)66-No ATG-GFP in HEK293T cells. Put plainly: Cell-based assay of RAN translation inhibition (GFP/mCherry reporter). The following applies: Homo sapiens, HEK-293T; for IC50: read-out: RANT IC50; for IC25: 24 h, 24 h treatment, read-out: RANT IC25.
The target in assay [3] is biotinylated r(G4C2)8 RNA and hnRNP H1-His6. In words: TR-FRET hnRNP H binding assay. Summed up: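 Biotinylated r(G4C2)8 RNA (80 nM), heat-folded at 95 °C then slowly cooled, was preincubated 15 min with compound before hnRNP H1-His6 (75 nM) was added. After 15 min, streptavidin-XL665 (40 nM) and anti-His6-Tb (0.44 ng/μL) were added and TR-FRET was read after 1 h. IC50 was obtained by curve fitting.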
A general note: Time-resolved FRET reads energy transfer from a long-lived donor to a nearby acceptor.

Read-outs that look alike come from different tables or passages of the source.

The Kd is the equilibrium constant for the complex coming apart. A word on the IC50: it is the concentration that inhibits the measured activity by half. Usually Ki stands for a dissociation constant, usually derived from enzyme kinetics or from competition with a known ligand. High values mean a looser hold on the target, low ones a stronger hold on the target. As usually defined, the IC25 is the concentration needed for an effect of 25%.

In assay [1], `Cc1c2ccncc2cc2c3cc(OC[C@H](C)NCC(F)F)ccc3n(C)c12` [Compound 279, (2S)—N-(2,2-difluoroethyl)-1-(5,6-dimethylpyrido[4,3-b]carbazol-9-yl)oxy-propan-2-amine] had a Kd of 250 nM. For the same compound, the concentration for half-maximal inhibition (IC50) in assay [2] (Table G, HEK293T) amounted to 2.4 µM.

In turn, `COC[C@H](C)NC(=O)c1ccc2c(c1)c1cc3cnccc3c(C)c1n2C` [Compound 288, (S)—N-(1-methoxypropan-2-yl)-5,6-dimethyl-6H-pyrido[4,3-b]carbazole-9-carboxamide] came in with a dissociation constant (Kd) in assay [1] of 9600 nM. For the same compound, the IC50 in assay [2] (Table G, HEK293T) came out at 2 µM.

For `Cc1c2ccncc2cc2c3cc(C(=O)N[C@H](C)CO)ccc3n(C)c12` [Compound 289, (R)—N-(1-hydroxypropan-2-yl)-5,6-dimethyl-6H-pyrido[4,3-b]carbazole-9-carboxamide], the affinity in assay [1], expressed as Kd, was 5000 nM. In addition, in assay [2] (Table G, HEK293T), the IC50 is 2.4 µM.

In turn, `Cc1c2ccncc2cc2c3cc(C(=O)NC[C@@H](C)N(C)C)ccc3n(C)c12` [Compound 294, N-[(2R)-2-(dimethylamino)propyl]-5,6-dimethyl-pyrido[4,3-b]carbazole-9-carboxamide] registered a Kd in assay [1] of 300 nM. The IC50 in assay [2] (Table G, HEK293T) turned out to be 13 µM.

With `Cc1c2ccncc2cc2c3cc(OCCCN4CCCCC4)ccc3n(C)c12` [Compound 266, 5,6-dimethyl-9-(3-(piperidin-1-yl)propoxy)-6H-pyrido[4,3-b]carbazole], binding in assay [1] was characterised by a dissociation constant (Kd) of 690 nM. In addition, the half-maximal inhibitory concentration (IC50) in assay [2] (Table G, HEK293T) came to 7.8 µM.

In turn, `Cc1c2ccncc2cc2c3cc(C(=O)N[C@@H](C)CO)ccc3n(C)c12` [Compound 291, N-[(1S)-2-hydroxy-1-methyl-ethyl]-5,6-dimethyl-pyrido[4,3-b]carbazole-9-carboxamide] yielded a Kd in assay [1] of 3800 nM. For the same compound, in assay [2] (Table G, HEK293T), the half-maximal inhibitory concentration (IC50) was determined as 1.8 µM.

In assay [1], `Cc1c2ccncc2cc2c3cc(Oc4cccc(N)n4)ccc3n(C)c12` [Compound 304, 6-((5,6-dimethyl-6H-pyrido[4,3-b]carbazol-9-yl)oxy)pyridin-2-amine] returned a dissociation constant (Kd) of 1400 nM. Besides, the half-maximal inhibitory concentration (IC50) in assay [2] (Table G, HEK293T) turned out to be 5.9 µM.

On to `Cc1c2ccnc(C(=O)NCCN(C)C)c2cc2c3cc(F)c(F)cc3n(C)c12` [Compound 313, N-(2-(dimethylamino)ethyl)-8,9-difluoro-5,6-dimethyl-6H-pyrido[4,3-b]carbazole-1-carboxamide], for which the dissociation constant (Kd) in assay [1] is 4700 nM. In addition, the IC50 in assay [2] (Table G, HEK293T) was greater than 100 µM.

`Cc1c2ccncc2cc2c3cc(OCC(N)=O)cc(F)c3n(C)c12` [Compound 264, 2-(7-fluoro-5,6-dimethyl-pyrido[4,3-b]carbazol-9-yl)oxyacetamide]: in assay [1], the Kd was 180 nM. In addition, the IC50 in assay [2] (Table G, HEK293T) is greater than 100 µM.

Take `Cc1c2ccncc2cc2c1[nH]c1ccc(OCCN)cc12` [Compound 263, 2-[(5-methyl-6H-pyrido[4,3-b]carbazol-9-yl)oxy]ethanamine]: binding in assay [1] was put at a Kd of 610 nM. In addition, the 50% inhibitory concentration (IC50) in assay [2] (Table G, HEK293T) was greater than 100 µM.

Compound `Cc1c2ccncc2cc2c3cc(OC[C@H](C)NC(C)C)ccc3n(C)c12` [Compound 283, (S)-1-((5,6-dimethyl-6H-pyrido[4,3-b]carbazol-9-yl)oxy)-N-isopropylpropan-2-amine] returned a dissociation constant Kd in assay [1] of 90 nM. Further, the IC50 in assay [2] (Table G, HEK293T) is 2.4 µM.

The compound `Cc1c2ccncc2cc2c3ccccc3n(CC3=NCCN3)c12` [Compound 317, 6-((4,5-dihydro-1H-imidazol-2-yl)methyl)-5-methyl-6H-pyrido[4,3-b]carbazole] came in with an equilibrium dissociation constant (Kd) in assay [1] of 5000 nM. In assay [2] (Table G, HEK293T), the half-maximal inhibitory concentration (IC50) came out at 5 µM.

Regarding `Cc1c2ccncc2cc2c3cc(C(=O)NC[C@@H](C)N)ccc3n(C)c12` [Compound 284, (R)—N-(2-aminopropyl)-5,6-dimethyl-6H-pyrido[4,3-b]carbazole-9-carboxamide], in assay [1], the Kd came out at 350 nM. The 50% inhibitory concentration (IC50) in assay [2] (Table G, HEK293T) came to 1.8 µM.

`Cc1c2ccncc2cc2c3cc(C(=O)NC[C@H](C)N(C)C)ccc3n(C)c12` [Compound 300, (S)—N-(2-(dimethylamino)propyl)-5,6-dimethyl-6H-pyrido[4,3-b]carbazole-9-carboxamide] showed a dissociation constant (Kd) in assay [1] of 350 nM. Further, the IC50 in assay [2] (Table G, HEK293T) turned out to be 8.6 µM.

Compound `Cc1c2ccnc(C(=O)N[C@H](C)CN(C)C)c2cc2c3cc(F)ccc3n(C)c12` [Compound 310, (R)—N-(1-(dimethylamino)propan-2-yl)-9-fluoro-5,6-dimethyl-6H-pyrido[4,3-b]carbazole-1-carboxamide] returned a dissociation constant (Kd) in assay [1] of 970 nM. Further, the IC50 in assay [2] (Table G, HEK293T) amounted to 38 µM.

The compound `COC(C)(C)CNC(=O)c1ccc2c(c1)c1cc3cnccc3c(C)c1n2C` [Compound 299, N-(2-methoxy-2-methylpropyl)-5,6-dimethyl-6H-pyrido[4,3-b]carbazole-9-carboxamide] returned a dissociation constant Kd in assay [1] of 240 nM. In addition, the IC50 in assay [2] (Table G, HEK293T) is 3.8 µM.

As for `CNCCOc1ccc2c(c1)c1cc3cnccc3c(C)c1n2C` [Compound 321, 2-((5,6-dimethyl-6H-pyrido[4,3-b]carbazol-9-yl)oxy)-N-methylethanamine], binding in assay [1] was put at a Kd of 710 nM. The IC50 in assay [2] (Table G, HEK293T) is 3.5 µM.

The compound `Cc1c2ccncc2cc2c3cc(C(=O)N[C@@H](C)CN(C)C)ccc3n(C)c12` [Compound 295, N-[(1S)-2-(dimethylamino)-1-methyl-ethyl]-5,6-dimethyl-pyrido[4,3-b]carbazole-9-carboxamide] came in with a Kd in assay [1] of 350 nM. Besides, the IC50 in assay [2] (Table G, HEK293T) was found to be 41 µM.

Regarding `Cc1c2ccncc2cc2c3cc(C(=O)NC[C@H](C)O)ccc3n(C)c12` [Compound 287, N-[(2S)-2-hydroxypropyl]-5,6-dimethyl-pyrido[4,3-b]carbazole-9-carboxamide], in assay [1], binding was put at a Kd of 1500 nM. The IC50 in assay [2] (Table G, HEK293T) came out at 1.4 µM.

With `Cc1c2ccncc2cc2c3ccccc3n(CCN3CCCCC3)c12` [Compound 318, 5-methyl-6-(2-(piperidin-1-yl)ethyl)-6H-pyrido[4,3-b]carbazole], in assay [1], the Kd came to 6000 nM. Further, the IC50 in assay [2] turned out to be 16 µM.

Consider `COCC(C)(C)NC(=O)c1ccc2c(c1)c1cc3cnccc3c(C)c1n2C` [Compound 302, N-(1-methoxy-2-methylpropan-2-yl)-5,6-dimethyl-6H-pyrido[4,3-b]carbazole-9-carb-oxamide], for which the Kd in assay [1] is 8200 nM. Further, the IC50 in assay [2] (Table G, HEK293T) amounted to 9.1 µM.

The compound `Cc1c2ccncc2cc2c3cc(OCC[C@@H](C)N)ccc3n(C)c12` [Compound 267, (R)-4-((5,6-dimethyl-6H-pyrido[4,3-b]carbazol-9-yl)oxy)butan-2-amine] displayed a Kd in assay [1] of 8000 nM. Also, the IC50 in assay [2] (Table G, HEK293T) is greater than 21 µM.

Consider `Cc1c2ccnc(C(=O)NCCN(C)C)c2cc2c3cc(F)ccc3n(C)c12` [Compound 315, N-(2-(dimethylamino)ethyl)-9-fluoro-5,6-dimethyl-6H-pyrido[4,3-b]carbazole-1-carboxamide], for which, in assay [1], the affinity, expressed as Kd, was 11000 nM. The IC50 in assay [2] (Table G, HEK293T) was greater than 100 µM.

Consider `Cc1c2ccncc2cc2c3cc(C(=O)N[C@H](C)CN(C)C)ccc3n(C)c12` [Compound 286, N-[(1R)-2-(dimethylamino)-1-methyl-ethyl]-5,6-dimethyl-pyrido[4,3-b]carbazole-9-carboxamide], for which the Kd in assay [1] stood at 2600 nM. Further, the IC50 in assay [2] (Table G, HEK293T) came out at 10 µM.

In assay [1], `Cc1c2ccncc2cc2c3cc(C(=O)N[C@@H](C)C(N)=O)ccc3n(C)c12` [Compound 297, (S)—N-(1-amino-1-oxopropan-2-yl)-5,6-dimethyl-6H-pyrido[4,3-b]carbazole-9-carboxamide] yielded a dissociation constant (Kd) of 2700 nM. Also, in assay [2] (Table G, HEK293T), the concentration for half-maximal inhibition (IC50) was determined as 2.9 µM.

As to `Cc1c2ccnc(C(=O)N[C@H](C)CN(C)C)c2cc2c3cccc(OCCCN4CCN(C)CC4)c3n(C)c12` [Compound 253, (R)—N-(1-(dimethylamino)propan-2-yl)-5,6-dimethyl-7-(3-(4-methylpiperazin-1-yl)propoxy)-6H-pyrido[4,3-b]carbazole-1-carboxamide], the inhibition constant Ki in assay [3] (Table F) stood at 14 µM. Also, in assay [2] (Table F, HEK293T), the IC25 is greater than 5 µM.

As to `Cc1c2ccncc2cc2c3cc(C(=O)NCCN(C)C)ccc3n(C)c12` [Example 68, N-(2-(dimethylamino)ethyl)-5,6-dimethyl-6H-pyrido[4,3-b]carbazole-9-carboxamide], the affinity in assay [3] (Table D) corresponds to a Ki of 4 µM. Besides, the 25% effect concentration (IC25) in assay [2] (Table D, HEK293T) is 0.72 µM.

In turn, `Cc1c2ccncc2cc2c3cc(OCC4=NCCN4)ccc3n(C)c12` [Compound 3, 9-((4,5-dihydro-1H-imidazol-2-yl)methoxy)-5,6-dimethyl-6H-pyrido[4,3-b] carbazole] registered a Ki in assay [3] (Table D) of 8.3 µM. For the same compound, in assay [2] (Table D, HEK293T), the IC25 was 0.1 µM.

`Cc1c2ccncc2cc2c3cc(OC[C@@H](C)N(C)C)ccc3n(C)c12` [Compound 242, (R)-1-((5,6-dimethyl-6H-pyrido[4,3-b]carbazol-9-yl)oxy)-N,N-dimethylpropan-2-amine] yielded an inhibition constant (Ki) in assay [3] (Table F) of 0.5 µM. Besides, the IC25 in assay [2] (Table F, HEK293T) was 1.5 µM.

In assay [3] (Table D), `Cc1c2cnccc2cc2c3cc(OCC4=NCCN4)ccc3n(C)c12` [Example 83, 7-(4,5-dihydro-1H-imidazol-2-ylmethoxy)-10,11-dimethyl-pyrido[3,4-b]carbazole] returned an inhibition constant (Ki) of 2.3 µM. The IC25 in assay [2] (Table D, HEK293T) was 1.1 µM.

As to `Cc1c2ccnc(C3CCCO3)c2cc2c3cc(C(=O)NCCN(C)C)ccc3n(C)c12` (stereo not shown) [Compound 216, N-(2-(dimethylamino)ethyl)-5,6-dimethyl-1-(tetrahydrofuran-2-yl)-6H-pyrido[4,3-b]carbazole-9-carboxamide], in assay [3] (Table F), the affinity, expressed as Ki, was 6.9 µM. Besides, in assay [2] (Table F, HEK293T), the 25% effect concentration (IC25) was 1.7 µM.

In turn, `Cc1c2ccncc2cc2c3cc(OCCCN4CCN(C)CC4)ccc3n(C)c12` [Compound 23, 5,6-dimethyl-9-(3-(4-methylpiperazin-1-yl)propoxy)-6H-pyrido[4,3-b]carbazole] yielded a Ki in assay [3] (Table D) of 9.4 µM. In addition, the 25% effect concentration (IC25) in assay [2] (Table D, HEK293T) is greater than 5 µM.

The values are drawn from US20240067639A1, “SMALL MOLECULES THAT TARGET THE RNA THAT CAUSES ALS” (EXPANSION THERAPEUTICS, INC., priority 2020, published 2024).
